Where a SMILES comes first, the peptide text is derived from it.
How the values were obtained:
[1] = target: T1, Alpha-2A adrenergic receptor (Homo sapiens, UniProt P08913); type: functional, cell-based
T1 sequence (P08913 whole entry): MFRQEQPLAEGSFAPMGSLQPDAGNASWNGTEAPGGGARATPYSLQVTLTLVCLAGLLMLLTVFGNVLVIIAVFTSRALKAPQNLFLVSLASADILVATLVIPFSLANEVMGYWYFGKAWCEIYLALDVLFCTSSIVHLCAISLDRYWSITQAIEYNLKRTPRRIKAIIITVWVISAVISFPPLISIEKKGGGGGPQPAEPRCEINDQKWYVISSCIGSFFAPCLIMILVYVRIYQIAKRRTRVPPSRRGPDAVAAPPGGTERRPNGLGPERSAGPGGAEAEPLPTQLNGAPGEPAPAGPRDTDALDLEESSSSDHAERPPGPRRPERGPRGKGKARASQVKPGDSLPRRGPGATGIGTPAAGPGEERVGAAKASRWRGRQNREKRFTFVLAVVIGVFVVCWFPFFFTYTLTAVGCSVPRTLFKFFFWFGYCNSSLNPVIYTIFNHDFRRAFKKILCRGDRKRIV

[2] = target: Beta-2 adrenergic receptor (Homo sapiens, UniProt P07550)
Sequence of Beta-2 adrenergic receptor (P07550 whole entry): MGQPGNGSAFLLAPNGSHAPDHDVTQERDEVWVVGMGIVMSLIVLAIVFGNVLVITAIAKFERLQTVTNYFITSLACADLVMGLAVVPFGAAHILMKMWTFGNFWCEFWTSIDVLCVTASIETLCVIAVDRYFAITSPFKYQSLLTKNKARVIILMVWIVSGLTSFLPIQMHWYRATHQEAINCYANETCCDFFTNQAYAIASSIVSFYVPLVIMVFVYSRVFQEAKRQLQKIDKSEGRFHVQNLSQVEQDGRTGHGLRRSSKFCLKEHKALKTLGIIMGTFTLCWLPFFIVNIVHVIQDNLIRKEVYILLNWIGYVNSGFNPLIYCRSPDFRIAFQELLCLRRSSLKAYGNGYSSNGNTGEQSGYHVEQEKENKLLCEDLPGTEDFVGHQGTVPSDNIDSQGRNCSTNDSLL

[3] = target: T2, Gastrin/cholecystokinin type B receptor (Homo sapiens, UniProt P32239)
T2 sequence (P32239 whole entry): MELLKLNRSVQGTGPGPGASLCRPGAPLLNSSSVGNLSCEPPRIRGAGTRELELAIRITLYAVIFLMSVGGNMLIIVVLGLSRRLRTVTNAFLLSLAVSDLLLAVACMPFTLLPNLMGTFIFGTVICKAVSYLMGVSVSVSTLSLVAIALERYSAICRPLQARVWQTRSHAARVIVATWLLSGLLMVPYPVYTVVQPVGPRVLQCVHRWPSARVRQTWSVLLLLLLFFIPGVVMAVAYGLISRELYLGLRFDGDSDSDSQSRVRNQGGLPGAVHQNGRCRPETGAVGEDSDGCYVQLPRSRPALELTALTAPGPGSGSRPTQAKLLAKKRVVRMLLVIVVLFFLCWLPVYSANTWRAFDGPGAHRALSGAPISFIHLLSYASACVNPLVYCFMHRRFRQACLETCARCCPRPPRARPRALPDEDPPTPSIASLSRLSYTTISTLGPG

[4] = target: T3, Muscarinic acetylcholine receptor M2 (Homo sapiens, UniProt P08172); type: functional, cell-based
T3 sequence (P08172 whole entry): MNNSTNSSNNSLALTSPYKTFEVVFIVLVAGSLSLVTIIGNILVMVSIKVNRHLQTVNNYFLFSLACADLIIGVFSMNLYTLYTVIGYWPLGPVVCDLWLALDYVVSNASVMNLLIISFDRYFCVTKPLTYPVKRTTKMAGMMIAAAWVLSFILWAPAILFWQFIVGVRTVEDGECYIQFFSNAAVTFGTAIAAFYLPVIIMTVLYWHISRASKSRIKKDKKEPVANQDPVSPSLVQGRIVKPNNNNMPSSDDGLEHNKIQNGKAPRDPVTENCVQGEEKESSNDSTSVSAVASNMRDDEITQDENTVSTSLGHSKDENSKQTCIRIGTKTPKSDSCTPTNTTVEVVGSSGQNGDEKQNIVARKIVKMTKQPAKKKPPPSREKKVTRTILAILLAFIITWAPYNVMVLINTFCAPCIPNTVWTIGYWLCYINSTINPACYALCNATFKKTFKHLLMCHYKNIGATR

[5] = target: Neuronal acetylcholine receptor subunit alpha-4 (Homo sapiens, UniProt P43681)
Sequence of Neuronal acetylcholine receptor subunit alpha-4 (P43681 whole entry): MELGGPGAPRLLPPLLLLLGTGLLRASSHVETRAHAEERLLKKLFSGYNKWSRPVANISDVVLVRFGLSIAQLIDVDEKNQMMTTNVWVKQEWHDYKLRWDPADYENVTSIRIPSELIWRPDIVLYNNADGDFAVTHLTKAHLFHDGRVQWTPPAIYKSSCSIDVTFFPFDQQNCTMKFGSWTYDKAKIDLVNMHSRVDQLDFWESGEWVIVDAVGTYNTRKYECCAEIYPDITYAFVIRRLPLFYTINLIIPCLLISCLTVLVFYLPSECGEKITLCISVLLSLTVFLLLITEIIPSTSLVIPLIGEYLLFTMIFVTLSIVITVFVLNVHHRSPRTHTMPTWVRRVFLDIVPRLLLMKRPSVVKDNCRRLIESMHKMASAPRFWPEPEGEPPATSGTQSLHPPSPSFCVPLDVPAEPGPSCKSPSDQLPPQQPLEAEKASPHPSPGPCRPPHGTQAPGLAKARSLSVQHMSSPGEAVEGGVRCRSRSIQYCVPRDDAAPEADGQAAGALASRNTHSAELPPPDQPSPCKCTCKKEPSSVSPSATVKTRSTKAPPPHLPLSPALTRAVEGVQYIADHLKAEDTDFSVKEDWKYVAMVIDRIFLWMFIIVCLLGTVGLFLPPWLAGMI

[6] = target: Growth hormone secretagogue receptor type 1 (Homo sapiens, UniProt Q92847)
Sequence of Growth hormone secretagogue receptor type 1 (Q92847 whole entry): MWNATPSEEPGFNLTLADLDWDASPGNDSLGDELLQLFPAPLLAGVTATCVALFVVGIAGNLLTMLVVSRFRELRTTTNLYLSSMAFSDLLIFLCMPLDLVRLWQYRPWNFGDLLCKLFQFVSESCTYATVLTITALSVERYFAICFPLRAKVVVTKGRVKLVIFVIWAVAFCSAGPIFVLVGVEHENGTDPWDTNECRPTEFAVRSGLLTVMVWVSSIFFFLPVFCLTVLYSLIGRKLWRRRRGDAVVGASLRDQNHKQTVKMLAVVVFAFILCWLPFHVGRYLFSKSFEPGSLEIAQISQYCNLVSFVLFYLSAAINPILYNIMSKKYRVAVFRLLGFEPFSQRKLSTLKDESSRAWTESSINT

Histamine H2 receptor = Histamine H2 receptor (Homo sapiens, UniProt P25021); type: functional, cell-based
Sequence of Histamine H2 receptor (P25021 whole entry): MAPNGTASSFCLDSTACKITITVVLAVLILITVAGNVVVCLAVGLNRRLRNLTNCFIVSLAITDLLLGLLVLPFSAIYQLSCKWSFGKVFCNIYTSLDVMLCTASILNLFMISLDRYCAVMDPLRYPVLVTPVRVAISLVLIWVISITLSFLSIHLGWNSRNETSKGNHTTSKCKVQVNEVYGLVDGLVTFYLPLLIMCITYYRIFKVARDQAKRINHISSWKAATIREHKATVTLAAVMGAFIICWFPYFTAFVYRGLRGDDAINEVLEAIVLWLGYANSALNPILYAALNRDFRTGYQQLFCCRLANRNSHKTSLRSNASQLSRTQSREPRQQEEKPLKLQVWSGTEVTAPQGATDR

[7] = target: 5-hydroxytryptamine receptor 2A (Homo sapiens, UniProt P28223); type: functional, cell-based
Sequence of 5-hydroxytryptamine receptor 2A (P28223 whole entry): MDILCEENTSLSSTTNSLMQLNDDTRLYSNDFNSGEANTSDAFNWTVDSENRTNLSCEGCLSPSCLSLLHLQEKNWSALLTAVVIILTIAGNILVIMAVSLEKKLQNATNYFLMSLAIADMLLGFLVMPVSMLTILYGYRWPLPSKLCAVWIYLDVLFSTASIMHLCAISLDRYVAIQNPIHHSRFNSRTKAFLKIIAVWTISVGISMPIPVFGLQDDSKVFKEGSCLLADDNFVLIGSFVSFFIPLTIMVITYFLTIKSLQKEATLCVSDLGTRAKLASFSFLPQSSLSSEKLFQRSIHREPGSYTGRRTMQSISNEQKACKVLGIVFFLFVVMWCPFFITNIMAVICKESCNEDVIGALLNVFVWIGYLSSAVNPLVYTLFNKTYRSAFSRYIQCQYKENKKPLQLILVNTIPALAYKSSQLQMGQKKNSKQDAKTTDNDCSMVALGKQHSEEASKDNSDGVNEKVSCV

[8] = target: T4, 5-hydroxytryptamine receptor 3A (Homo sapiens, UniProt P46098); type: functional
T4 sequence (P46098 whole entry): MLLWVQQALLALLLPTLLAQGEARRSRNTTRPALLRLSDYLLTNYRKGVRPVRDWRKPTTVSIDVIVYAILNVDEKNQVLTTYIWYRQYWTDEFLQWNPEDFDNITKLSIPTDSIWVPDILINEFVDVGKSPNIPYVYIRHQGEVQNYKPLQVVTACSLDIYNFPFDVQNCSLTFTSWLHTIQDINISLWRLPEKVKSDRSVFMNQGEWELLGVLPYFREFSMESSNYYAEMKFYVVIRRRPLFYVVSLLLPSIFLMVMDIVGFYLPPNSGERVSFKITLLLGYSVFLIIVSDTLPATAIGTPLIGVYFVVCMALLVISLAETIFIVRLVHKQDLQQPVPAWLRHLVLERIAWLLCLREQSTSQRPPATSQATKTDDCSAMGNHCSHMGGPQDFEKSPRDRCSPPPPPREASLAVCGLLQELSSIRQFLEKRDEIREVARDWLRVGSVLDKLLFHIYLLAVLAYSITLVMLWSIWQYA

[9] = target: Delta-type opioid receptor (Homo sapiens, UniProt P41143)
Sequence of Delta-type opioid receptor (P41143 whole entry): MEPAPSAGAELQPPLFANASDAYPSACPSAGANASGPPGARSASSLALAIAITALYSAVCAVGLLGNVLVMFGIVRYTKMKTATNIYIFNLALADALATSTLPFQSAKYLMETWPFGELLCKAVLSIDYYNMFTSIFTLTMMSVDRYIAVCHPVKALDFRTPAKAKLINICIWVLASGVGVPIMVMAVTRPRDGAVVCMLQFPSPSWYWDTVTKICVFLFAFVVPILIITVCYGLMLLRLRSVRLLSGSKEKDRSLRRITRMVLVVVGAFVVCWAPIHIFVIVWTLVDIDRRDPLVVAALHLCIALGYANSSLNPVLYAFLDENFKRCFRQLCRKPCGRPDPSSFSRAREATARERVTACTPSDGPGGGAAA

[10] = target: cGMP-inhibited 3',5'-cyclic phosphodiesterase 3A (Homo sapiens, UniProt Q14432); type: functional
Sequence of cGMP-inhibited 3',5'-cyclic phosphodiesterase 3A (Q14432 whole entry): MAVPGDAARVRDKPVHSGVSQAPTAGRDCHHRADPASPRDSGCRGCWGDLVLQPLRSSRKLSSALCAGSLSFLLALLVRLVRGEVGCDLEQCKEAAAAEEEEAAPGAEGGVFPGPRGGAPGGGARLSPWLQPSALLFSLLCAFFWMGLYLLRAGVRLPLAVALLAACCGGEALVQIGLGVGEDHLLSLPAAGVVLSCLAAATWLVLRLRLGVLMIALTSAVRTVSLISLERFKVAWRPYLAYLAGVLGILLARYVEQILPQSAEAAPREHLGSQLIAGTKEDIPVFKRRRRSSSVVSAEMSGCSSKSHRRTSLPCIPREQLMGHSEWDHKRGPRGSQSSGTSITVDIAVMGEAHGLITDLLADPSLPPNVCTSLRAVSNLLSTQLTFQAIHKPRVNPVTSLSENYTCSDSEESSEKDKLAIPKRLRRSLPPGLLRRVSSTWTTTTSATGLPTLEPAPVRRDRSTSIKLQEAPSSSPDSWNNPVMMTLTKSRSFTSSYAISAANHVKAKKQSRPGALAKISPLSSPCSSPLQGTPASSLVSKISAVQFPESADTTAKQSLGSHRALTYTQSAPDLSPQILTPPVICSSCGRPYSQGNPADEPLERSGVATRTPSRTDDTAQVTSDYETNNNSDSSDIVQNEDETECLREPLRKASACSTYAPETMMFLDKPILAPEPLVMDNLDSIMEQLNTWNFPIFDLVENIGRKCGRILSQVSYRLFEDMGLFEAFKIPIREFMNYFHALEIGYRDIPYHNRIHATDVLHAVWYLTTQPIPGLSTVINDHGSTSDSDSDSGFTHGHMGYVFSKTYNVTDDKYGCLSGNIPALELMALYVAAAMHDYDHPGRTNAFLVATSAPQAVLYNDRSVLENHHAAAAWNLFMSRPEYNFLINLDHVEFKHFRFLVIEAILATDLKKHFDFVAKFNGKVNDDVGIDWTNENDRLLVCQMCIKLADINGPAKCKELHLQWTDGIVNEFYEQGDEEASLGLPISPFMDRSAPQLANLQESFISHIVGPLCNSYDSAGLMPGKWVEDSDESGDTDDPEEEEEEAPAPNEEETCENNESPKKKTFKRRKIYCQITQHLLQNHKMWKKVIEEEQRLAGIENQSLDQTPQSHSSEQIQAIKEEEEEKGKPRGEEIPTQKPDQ

Cannabinoid receptor 1 [11] = target: T5, Cannabinoid receptor 1 (Homo sapiens, UniProt P21554); type: functional, cell-based
T5 sequence (P21554 whole entry): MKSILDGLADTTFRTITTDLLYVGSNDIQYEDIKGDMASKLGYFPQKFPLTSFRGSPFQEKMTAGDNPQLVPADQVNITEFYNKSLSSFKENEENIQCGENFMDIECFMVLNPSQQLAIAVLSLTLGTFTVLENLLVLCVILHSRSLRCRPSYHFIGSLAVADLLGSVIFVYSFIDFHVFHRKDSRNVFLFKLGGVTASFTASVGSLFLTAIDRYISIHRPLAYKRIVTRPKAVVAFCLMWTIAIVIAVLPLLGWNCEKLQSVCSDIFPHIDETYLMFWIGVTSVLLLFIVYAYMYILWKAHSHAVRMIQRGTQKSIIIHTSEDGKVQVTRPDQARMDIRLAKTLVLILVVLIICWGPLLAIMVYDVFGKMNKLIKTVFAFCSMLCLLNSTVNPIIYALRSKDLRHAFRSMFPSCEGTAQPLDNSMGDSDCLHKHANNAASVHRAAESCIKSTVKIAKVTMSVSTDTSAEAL

Cannabinoid receptor 1 [12] = target: T5, Cannabinoid receptor 1; type: functional, cell-based; remark: listed apart in the source
Further: assay procedure not described here.

Structure (SMILES) | AC50 [1] [µM] | AC50 [2] [µM] | AC50 [3] [µM] | AC50 [4] [µM] | AC50 [5] [µM] | AC50 [6] [µM] | AC50 (Histamine H2 receptor) [µM] | AC50 [7] [µM] | AC50 [8] [µM] | AC50 [9] [µM] | AC50 [10] [µM] | AC50 (Cannabinoid receptor 1 [11]) [µM] | AC50 (Cannabinoid receptor 1 [12]) [µM]
O=C(O)c1ccc2nc(-c3cc(Cl)cc(Cl)c3)oc2c1 | > 30 | > 30 | > 10 | > 30 | > 30 | > 30 | > 30 | > 30 | > 30 | 30 | 24 | – | –
NS(=O)(=O)c1ccc(N2CCCCS2(=O)=O)cc1 | > 30 | > 30 | > 30 | > 30 | > 30 | > 30 | > 30 | > 30 | > 30 | > 30 | > 30 | > 30 | > 30
C[C@H](N)C(=O)N[C@@H](CCC(N)=O)C(=O)O [ALANYL GLUTAMINE] (H-Ala-Gln-OH) | > 30 | > 30 | > 30 | > 30 | > 30 | > 30 | > 30 | > 30 | > 30 | > 30 | > 30 | > 30 | > 30
COc1cc(N)cn[n+]1-c1ccccc1 [AMEZINIUM METILSULFATE] | > 30 | > 30 | > 30 | > 30 | > 10 | > 30 | > 30 | > 30 | > 30 | > 30 | > 30 | > 30 | > 30
CO/N=C(\C(=O)N[C@@H]1C(=O)N2C(C(=O)O)=C(CSc3nc(C)c(CC(=O)O)s3)CS[C@H]12)c1csc(N)n1 [CEFODIZIME] | > 30 | > 30 | > 30 | > 30 | > 30 | > 30 | > 30 | > 30 | > 30 | > 30 | > 30 | > 30 | > 30
CO/N=C(\C(=O)N[C@@H]1C(=O)N2C(C(=O)[O-])=C(C[n+]3ccc(N)n3CCO)CS[C@H]12)c1csc(N)n1 [CEFOSELIS] | > 30 | > 30 | > 30 | > 30 | > 30 | > 30 | > 30 | > 30 | > 30 | > 30 | > 30 | > 30 | > 30
CCCO[C@H]1[C@@H]([C@@H](COCc2ccc(Cl)cc2)OCc2ccc(Cl)cc2)OC(OCC)[C@@H]1O (some centres not stated) [CLOBENOSIDE] | > 30 | > 30 | > 30 | > 30 | > 30 | > 30 | > 30 | > 30 | > 30 | > 30 | > 30 | > 30 | > 30
CC(=O)Oc1cccc2c1C(=O)c1c(OC(C)=O)cc(C(=O)O)cc1C2=O [DIACEREIN] | – | > 30 | > 30 | 12 | 27 | > 30 | > 30 | > 30 | > 30 | > 30 | > 30 | > 30 | > 30
CCN1C(=O)NC(c2ccccc2)C1=O (configuration not stated) [ETHOTOIN] | > 30 | – | > 30 | > 30 | > 30 | > 30 | > 30 | > 30 | > 30 | > 30 | > 30 | > 30 | > 30
CCC(=O)O[C@H](CC(=O)O)C[N+](C)(C)C [LEVOCARNITINE PROPIONATE] | > 30 | – | > 30 | > 30 | > 30 | > 30 | > 30 | > 30 | > 30 | > 30 | > 30 | > 30 | > 30
O=C(O)c1nn(Cc2ccc(Cl)cc2Cl)c2ccccc12 [LONIDAMINE] | > 30 | – | > 30 | > 30 | > 30 | > 30 | > 30 | > 30 | > 30 | > 30 | > 30 | > 30 | > 30
COC(=O)c1ccc2c(c1)NC(=O)/C2=C(\Nc1ccc(N(C)C(=O)CN2CCN(C)CC2)cc1)c1ccccc1 [NINTEDANIB] | > 30 | – | > 30 | > 30 | > 30 | > 30 | > 30 | > 30 | > 30 | > 30 | > 30 | > 30 | > 30
CN1CCCN=C1/C=C/c1cccc(O)c1 [OXANTEL] | > 30 | – | > 10 | > 30 | 7.2 | > 30 | > 30 | > 30 | > 30 | > 30 | > 30 | > 30 | > 30
CS(=O)(=O)NC(=O)CCC/C=C\C[C@H]1C(=O)C[C@@H](O)[C@@H]1/C=C/[C@@H](O)COc1ccccc1 [SULPROSTONE] | > 30 | – | > 30 | > 30 | > 30 | > 30 | > 30 | > 30 | > 30 | > 30 | > 30 | > 30 | > 30
CCCCC[C@H](O)CC[C@@H]1[C@H]2Cc3cccc(OCC(=O)O)c3C[C@H]2C[C@H]1O [TREPROSTINIL] | > 30 | – | > 30 | > 30 | > 30 | > 30 | > 30 | > 30 | > 30 | > 30 | > 30 | > 30 | > 30
CCCCCCCC(=O)CC[C@@H]1[C@@H](C/C=C\CCCC(=O)O)[C@@H](O)C[C@H]1O [UNOPROSTONE] | > 30 | – | > 30 | > 30 | > 30 | > 30 | > 30 | > 30 | > 30 | > 30 | > 30 | > 30 | > 30
